Like-named read-outs stand apart in the source and are kept apart here.
How the values were obtained:
[1] = test system: intracranial pressure (cerebrospinal fluid pressure in the cisterna magna); assay: Effect of i.v. injection of test compounds on intracranial pressure in rats (Experiment 1); format: in vivo, Male SD-rats; details: for Change in intracranial pressure (%), time after administration of test compound 40 minutes / Change in intracranial pressure (%), time after administration of test compound 60 minutes / Change in intracranial pressure (%), time after administration of test compound 120 minutes / Change in intracranial pressure (%), time after administration of test compound 180 minutes: i.v. infusion 0.2 ml/kg/minute for 20 minutes; for Change in intracranial pressure (%), time after administration of test compound 40 minutes: baseline 100, control 106.4; for Change in intracranial pressure (%), time after administration of test compound 60 minutes: baseline 100, control 107.5; for Change in intracranial pressure (%), time after administration of test compound 120 minutes: baseline 100, control 114.4; for Change in intracranial pressure (%), time after administration of test compound 180 minutes: baseline 100, control 110.7
Method: (Effect of i.v. injection of test compounds on intracranial pressure in rats) Male SD-rats weighing 500 to 800 g (each group consisting of 5 rats) were anesthetized with urethane. A solution of a test compound in an aqueous 5 w/v % mannitol solution was infused via the femoral vein at a rate of 0.2 ml/kg/minute for 20 minutes (when the test compound was used in the form of free base, said solution was prepared by dissolving it in an aqueous 5 w/v % mannitol solution with the aid of 0.5 N hydrochloric acid). Intracranial pressure (i.e., cerebrospinal fluid pressure in the cisterna magna) was continuously monitored via a cannula inserted in the cisterna magna. The cannula was connected to a transducer, and recording were made on graph paper. The effect of the test compound on the intracranial pressure was estimated in terms of the increase or decrease in intracranial pressure, which was calculated in accordance with the following formula: [formula]

[2] = Maximum tolerance dose in mice (Experiment 3); parameters: species or system male mice; details: mouse, in vivo, ip
Method: As a result, the maximum tolerance doses of 1-[3-(4-acetamido-2-methoxyphenoxy)-n-propyl]-4-(3-fluorophenyl)-piperazine, 1-[3-(4-acetamido-2-methoxyphenoxy)-n-propyl]-4-(2-fluorophenyl)-piperazine and 1-[3-(4-ethoxycarbonylamino-2-methoxyphenoxy)-n-propyl]-4-phenyl-piperazine methanesulfonate were more than 300 mg/kg.

[3] = test system: apomorphine-induced cage climbing; assay: Anti-apomorphine activity in mice (Experiment 2 (3)); format: in vivo, male mice; details: Mus musculus, ip, apomorphine hydrochloride 2.5 mg/kg s.c., dose decreasing climbing mice by 50%
Method: (§1) (Inhibitory effect of test compound on central nervous system in mice)
(§2) Inhibitory effect of test compound on central nervous system was examined by the following methods.
A solution or suspension of a test compound in water or an aqueous carboxymethylcellulose solution was administered intraperitoneally to male mice weighing 18 to 20 g (each group consisting of 5 mice). Thirty minutes after administration of the test compound, apomorphine hydrochloride (2.5 mg/kg) was administered subcutaneously to the mice, and the number of the mice which could climb a cage was examined. The 50% effective dose (ED50) of the test compound was estimated in terms of dose which is necessary to decrease the number of the medicated mice which could climb the cage by 50% of the number of a control group (i.e., non-medicated mice) which could climb the cage.

[4] = test system: sodium hexobarbital-induced anesthesia; assay: Effect on sodium hexobarbital-induced anesthesia in mice (Experiment 2 (2)); format: in vivo, male mice; details: Mus musculus, ip, sodium hexobarbital 100 mg/kg i.p., dose prolonging sleeping time to twice control
Method: as §1, §2
A solution or suspension of a test compound in water or an aqueous carboxymethylcellulose solution was administered intraperitoneally to male mice weighing 18 to 20 g (each group consisting of 5 mice). Thirty minutes after intraperitoneal administration of the test compound, sodium hexobarbital (100 mg/kg) was administered intraperitoneally to the mice, and the sleeping time between the loss and recovery of righting reflex was measured. The 50% effective dose (ED50) of the test compound was estimated in terms of dose which is necessary to prolong the sleeping time of the medicated mice twice as long as that of a control group (i.e., non-medicated mice).

[5] = test system: spontaneous motor activity / central nervous system; assay: Inhibitory effect on spontaneous motor activity in mice (Experiment 2 (1)); format: in vivo, male mice; details: Mus musculus, ip, 0.5 h, i.p., 30 minutes after administration, dose decreasing motor activity by 50%
Method: as §1, §2
A solution or suspension of a test compound in water or an aqueous carboxymethylcellulose solution was administered intraperitoneally to male mice weighing 18 to 20 g (each group consisting of 5 mice). Thirty minutes after administration of the test compound, the spontaneous motor activity of the mice was measured with an animex activity meter for 5 minutes. The 50% effective dose (ED50) of the test compound was estimated in terms of dose which is necessary to decrease the motor activity of the medicated mice by 50% of that of a control group (i.e., non-medicated mice).

SMILES	Change in intracranial pressure (%), time after administration of test compound 40 minutes [1] [%]	Change in intracranial pressure (%), time after administration of test compound 60 minutes [1] [%]	Change in intracranial pressure (%), time after administration of test compound 120 minutes [1] [%]	Change in intracranial pressure (%), time after administration of test compound 180 minutes [1] [%]	also measured
COc1cc(NC(C)=O)ccc1OCCCN1CCN(c2cccc(F)c2)CC1 [Example 5, 1-[3-(4-acetamido-2-methoxyphenoxy)-n-propyl]-4-(3-fluorophenyl)-piperazine]	–	–	–	–	decrease in the intracranial pressure ([1]; femoral vein infusion, dose 1 mg/kg, 40 minutes after administration): about 27%; MTD at 72 h [2]: > 300 mg/kg
COc1cc(NC(C)=O)ccc1OCCCN1CCN(c2ccccc2F)CC1 [Example 7, 1-[3-(4-acetamido-2-methoxyphenoxy)-n-propyl]-4-(2-fluorophenyl)-piperazine]	–	–	–	–	MTD at 72 h [2]: > 300 mg/kg
CCOC(=O)Nc1ccc(OCCCN2CCN(c3ccccc3)CC2)c(OC)c1.CS(=O)(=O)O [Example 21 methanesulfonate, 1-[3-(4-ethoxycarbonylamino-2-methoxyphenoxy)-n-propyl]-4-phenyl-piperazine methanesulfonate]	79.7	79.3	79.2	82.2	MTD at 72 h ([2]; mice, i.p., observed for 72 hours, read-out: maximum tolerance dose): > 300 mg/kg
COc1cc(NC(C)=O)ccc1OCCCN1CCN(c2ccccc2F)CC1 [NO. 2 (Table 4)]	–	–	–	–	ED50 [3]: 2.8 mg/kg
COc1cc(NC(C)=O)ccc1OCCCCN1CCN(c2ccccc2F)CC1 [NO. 3 (Table 1)]	86.6	91.9	85.7	84.6	–
COc1cc(NC(C)=O)ccc1OCCCN1CCN(c2ccccc2F)CC1 [NO. 3 (Table 3)]	–	–	–	–	ED50 [4]: 1.3 mg/kg
CCOC(=O)Nc1ccc(OCCCN2CCN(c3ccccc3)CC2)c(OC)c1 [NO. 3 (Table 4)]	–	–	–	–	ED50 [3]: 3 mg/kg
CCNc1ccc(OCCCN2CCN(c3ccccc3)CC2)c(OC)c1.Cl [NO. 4 (Table 1), 1-[3-(4-ethylamino-2-methoxyphenoxy)-n-propyl]-4-phenyl-piperazine hydrochloride]	83.9	81.1	86.8	91.3	–
COc1cc(NC(C)=O)ccc1OCCCN1CCN(c2ccccc2F)CC1 [NO. 4 (Table 2)]	–	–	–	–	ED50 [5]: 0.5 mg/kg
COc1cc(N)ccc1OCCCN1CCN(c2ccccc2)CC1 [NO. 5 (Table 1)]	79.1	77.0	75.0	75.6	–
COc1cc(N)ccc1OCCCN1CCN(c2ccccc2)CC1 [NO. 5 (Table 2), 1-[3-(4-amino-2-methoxyphenoxy)-n-propyl]-4-phenyl-piperazine]	–	–	–	–	ED50 [5]: 0.7 mg/kg
COc1cc(NC(C)C(=O)O)ccc1OCCCN1CCN(c2ccccc2)CC1.Cl (stereo not drawn) [NO. 6 (Table 1), 1-{3-[4-(1-carboxyethylamino)-2-methoxyphenoxy]-n-propyl}-4-phenylpiperazine hydrochloride]	81.5	86.2	96.2	99.0	–
COc1cc(NC=O)ccc1OCCCN1CCN(c2ccccc2)CC1 [NO. 7 (Table 1), 1-[3-(4-formylamino-2-methoxphenoxy)-n-propyl]-4-phenyl-piperazine]	84.1	83.5	83.5	81.9	–
COc1cc(NC(=O)C(C)C)ccc1OCCCN1CCN(c2ccccc2)CC1 [NO. 8 (Table 1), 1-[3-(4-isobutyrylamino-2-methoxyphenoxy)-n-propyl]-4-phenyl-piperazine]	83.3	85.4	85.1	87.1	–
COc1cc(NC(=O)C(C)(C)C)ccc1OCCCN1CCN(c2ccccc2)CC1 [NO. 9 (Table 1), 1-[3-(4-t-butylcarbonylamino-2-methoxyphenoxy)-n-propyl]-4-phenyl-piperazine]	84.1	84.9	84.9	87.4	–
COc1cc(NC(=O)C2CC2)ccc1OCCCN1CCN(c2ccccc2)CC1 [NO. 10 (Table 1), 1-[3-(4-cyclopropylcarbonylamino-2-methoxyphenoxy)-n-propyl]-4-phenyl-piperazine]	85.9	84.3	83.6	86.2	–
COc1cc(NC(=O)C2CCCCC2)ccc1OCCCN1CCN(c2ccccc2)CC1 [NO. 11 (Table 1), 1-[3-(4-cyclohexylcarbonylamino-2-methoxyphenoxy)-n-propyl]-4-phenyl-piperazine]	91.1	94.3	78.7	78.8	–
COc1cc(NC(=O)C=C(C)C)ccc1OCCCN1CCN(c2ccccc2)CC1 [NO. 12 (Table 1), 1-{3-[4-((2-methyl-1-propenyl)carbonylamino)-2-methoxyphenoxy]-n-propyl}-4-phenylpiperazine]	76.7	84.3	91.9	93.5	–
COc1cc(NC(=O)OC(C)(C)C)ccc1OCCCN1CCN(c2ccccc2)CC1 [NO. 14 (Table 1), 1-[3-(4-t-butoxycarbonylamino-2-methoxyphenoxy)-n-propyl]-4-phenyl-piperazine]	78.9	77.7	80.3	81.6	–

— patent US4413006A, “N-Aryl-N-phenoxy-alkyl-piperazine compounds useful in decreasing intracranial pressure” (Tanabe Seiyaku Co., Ltd., priority 1980, dated 1983)
